According to paper PMC10976043, “Function and Mechanism of Antiviral Wasp Venom Peptide Protopolybia-MP III and Its Derivatives against HSV-1” (Toxins, 2024):
Ends that are not written are not given here.

How the values were obtained:
Vero cells = test: CCK8 cytotoxicity assay, Vero cells; type: cell-based, monkey; conditions: 40 μg/mL, 24 h
Description: (A) Amino acid sequence of Protopolybia-MP III. Basic residues are labeled blue, and acidic residues are labeled red. (B,C) Suppression of intracellular HSV-1 infection by Protopolybia-MP III. Cells were preincubated with Protopolybia-MP III at different concentrations or PBS for 1 h and then infected with HSV-1 at a multiplicity of infection (MOI) of 1. After 24 h, the cells were collected. Intracellular HSV-1 RNA was analyzed by qPCR (B), and intracellular HSV-1 ICP0 protein levels were analyzed by Western blotting (C). (D) Suppression of Protopolybia-MP III on extracellular HSV-1 particles. Cells were treated with Protopolybia-MP III at different concentrations or PBS for 24 h, and then the supernatant was collected and evaluated in a plaque formation assay. (E) Cytotoxicity of Protopolybia-MP III to Vero cells. Cells were treated with Protopolybia-MP III or PBS at different concentrations for 24 h, and then the cytotoxicity was determined by CCK8 assay. * p < 0.05. ** p < 0.01. *** p < 0.001.
(§1) Cells were seeded in a 96-well plate (7000–10,000 cells per well) and cultured at 37 °C overnight. Peptides in a series of concentrations were added to the medium, and cells were then incubated at 37 °C for 24 h. […] Finally, the absorbance was measured at 450 nm using a microplate reader (BioTek, Winooski, VT, USA).

[1] = test system: human neuroepithelial cells (SK-N-MC); test: CCK8 cytotoxicity assay, SK-N-MC; type: cell-based; conditions: 40 μg/mL, 24 h
Description: Figure 2 Protopolybia-MP III inhibits HSV-1 replication in human cell lines. (A) Cytotoxicities of Protopolybia-MP III to A549 cells, HCEC, and SK-N-MC. Cells were treated with Protopolybia-MP III at different concentrations or PBS for 24 h, and then cytotoxicities were determined by the CCK8 assay. (B,C) Suppression of intracellular HSV-1 infection by Protopolybia-MP III in A549 cells, HCEC, and SK-N-MC. Cells were preincubated with Protopolybia-MP III at different concentrations or PBS for 1 h and then infected with HSV-1 at an MOI of 1. After 24 h, the cells were collected. Intracellular HSV-1 RNA was analyzed by qPCR (B), and intracellular HSV-1 ICP0 protein expression levels were analyzed by Western blotting (C). (D) Inhibition of Protopolybia-MP III on extracellular HSV-1 particles in A549 cells, HCEC, and SK-N-MC. Cells were treated with Protopolybia-MP III at different concentrations or PBS for 24 h, and then the supernatant was collected and evaluated in a plaque formation assay. * p < 0.05. ** p < 0.01. *** p < 0.001.
as §1

HSV-1 virion = test: Virion integrity assay (ultracentrifugation/gB Western blotting, electron microscopy); parameters: species or system herpes simplex virus type 1; conditions: 20 μg/mL with HSV-1 at 37 °C 1 h
Description: Figure 5 Protopolybia-MP III destroys the integrity of HSV-1 free virions. (A) Schematic diagram for studying the effect of Protopolybia-MP III on HSV-1 free virion infectivity. (B) Effects of Protopolybia-MP III on HSV-1 free virion infectivity at different temperatures. HSV-1 (MOI = 1) and 20 μg/mL Protopolybia-MP III or PBS were coincubated at 4 °C, 22 °C, and 37 °C for 1 h, and then Vero cells were infected as described in (A). After 24 h, cells were collected, and intracellular HSV-1 RNA was analyzed by qPCR. (C) Effects of different concentrations of Protopolybia-MP III on HSV-1 free virion infectivity. HSV-1 (MOI = 1) and 1 or 10 μg/mL Protopolybia-MP III or PBS were coincubated at 37 °C for 1 h, and then Vero cells were infected as described in (A). After 24 h, cells were collected, and intracellular HSV-1 RNA was analyzed by qPCR. (D,E) The effect of Protopolybia-MP III on HSV-1 free virion integrity. HSV-1 and 20 μg/mL Protopolybia-MP III or PBS were coincubated at 37 °C for 1 h. Then, after centrifuging for 2 h at 40,000 rpm at 4 °C, the contents of HSV-1 gB in the supernatant and precipitate were detected by Western blotting (D). In addition, the structure of HSV-1 virions after incubation with Protopolybia-MP III was observed by electron microscopy. The red arrow points to a destroyed HSV-1 virion. *** p < 0.001.
HSV-1 virions were coincubated with PBS or 20 μg/mL Protopolybia-MP III at 37 °C for 1 h. Then, the virions were separated by ultracentrifugation at 40,000 rpm at 4 °C for 2 h in a Beckman SW41 rotor (Beckman Coulter, Brea, CA, USA). The supernatant was collected and lyophilized using a vacuum freeze dryer (Labconco FreeZone6L, Kansas City, MO, USA). HSV-1 glycoprotein gB from both the precipitate and supernatant components were measured by Western blotting. In addition, after HSV-1 was coincubated with PBS or 20 μg/mL Protopolybia-MP III at 37 °C for 1 h, samples were placed on 200-mesh var/carbon-coated copper grids by dipping the grids into the virion sample solutions. […]

[2] = ultracentrifugation 40,000 rpm 2 h 4 °C, Western blotting

INWLKLGKAVIDAL-NH2 [Protopolybia-MP III]
cytotoxicity to Vero cells (Vero cells): almost nontoxic | cytotoxicity to SK-N-MC [1]: almost nontoxic | HSV-1 virion structure by electron microscopy (HSV-1 virion; negative staining): destroyed | gB content in the precipitate compared with PBS treatment (HSV-1 virion; [2]): significantly reduced | gB content in the supernatant compared with PBS treatment (HSV-1 virion; [2]): increased
